Imax and Activity data for ten compounds are collected here from ChEMBL document CHEMBL3046234, “Synthesis and pharmacological evaluation of some new naphthol derived aryloxy derivatives as cognition enhancers” (2012).

The target in assay [1] is T1, Acetylcholinesterase (Mus musculus) (UniProt P21836).
T1 sequence (whole entry): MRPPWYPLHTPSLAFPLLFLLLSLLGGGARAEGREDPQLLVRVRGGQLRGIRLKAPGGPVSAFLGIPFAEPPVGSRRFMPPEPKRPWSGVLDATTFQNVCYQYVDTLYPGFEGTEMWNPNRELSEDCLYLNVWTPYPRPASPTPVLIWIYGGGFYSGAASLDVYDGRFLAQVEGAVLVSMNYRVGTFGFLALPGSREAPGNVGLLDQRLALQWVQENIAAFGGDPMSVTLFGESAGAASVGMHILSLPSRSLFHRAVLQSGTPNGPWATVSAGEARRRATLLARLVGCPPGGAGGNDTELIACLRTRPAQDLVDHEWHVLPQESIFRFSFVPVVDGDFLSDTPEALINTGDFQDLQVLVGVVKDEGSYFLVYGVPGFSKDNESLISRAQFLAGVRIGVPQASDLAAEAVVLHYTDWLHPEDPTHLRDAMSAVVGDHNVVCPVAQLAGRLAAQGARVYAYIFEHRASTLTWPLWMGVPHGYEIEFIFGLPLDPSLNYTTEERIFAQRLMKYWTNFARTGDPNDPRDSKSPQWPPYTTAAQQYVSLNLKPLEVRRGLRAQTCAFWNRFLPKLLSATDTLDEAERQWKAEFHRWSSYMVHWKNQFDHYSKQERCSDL
Briefly: Inhibition of AChE in Mus musculus (mouse) brain homogenate at 10 uM after 5 min by Ellman method relative to control. In kind it is tissue-based.

Assay [2] concerns Mus musculus. Briefly: Antiamnesic activity in Mus musculus (mouse) assessed as retention of memory at 1 mg/kg, ip measured after 24 hr by elevated plus maze test. In kind it is functional. The following applies: route intraperitoneal.
For assay [3], the target named is T1, Acetylcholinesterase (Mus musculus). Put plainly: Inhibition of AChE in Mus musculus (mouse) brain homogenate assessed as residual activity measuring acetylthiocholine iodide hydrolysis per mg protein at 10 uM after 5 min by Ellman method. In kind it is tissue-based. For orientation: In Ellman's method for cholinesterases, released thiocholine reacts with DTNB.

Assay [4] concerns Mus musculus. Briefly: Antiamnesic activity in Mus musculus (mouse) assessed as retention of memory at 3 mg/kg, ip measured after 24 hr by elevated plus maze test. In kind it is functional. The following applies: route intraperitoneal.

For `CN1CCN(C(=O)COc2cccc3ccccc23)CC1`, the Imax in assay [1] was 86.5%. Also, the Activity in assay [2] was determined as 73.76%; in assay [3], 15.4 nmol/min; in assay [4] it was 86.18%.
In the same order, the values of `O=C(COc1cccc2ccccc12)N1CCOCC1` are 77.4%, 62.69%, 25.8 nmol/min and 81.65%.
In the same order, the values of `CN(C)C(=O)COc1cccc2ccccc12` are 33.1%, 52.92%, 76.2 nmol/min and 77.78%.
For `O=C(COc1cccc2ccccc12)N1CCCC1`, the Imax in assay [1] came out at 73.9%. For the same compound, the Activity turned out to be 51.59% in assay [2], 29.7 nmol/min in assay [3] and 68.44% in assay [4].
Consider `NC(=O)CN1CCCC1=O` [PIRACETAM], for which the figures for the Activity in assay [2] and in assay [4] were 32.47% and 46.88%, respectively.
`Nc1cccc2c(OCC(=O)N3CCCC3)cccc12` displayed an Imax in assay [1] of 31.1%. In addition, the Activity in assay [2] worked out at 69.11%; in assay [3] it was 78.5 nmol/min; in assay [4] it was 74.47%.
`O=C(COc1cccc2ccccc12)N1CCCCC1`: in assay [1], the Imax came to 26.8%. In addition, the Activity in assay [2] was found to be 63%; in assay [3], 83.5 nmol/min; in assay [4] it was 72.94%.
As to `CCN(CC)CCOc1cccc2c(NC(=O)C(C)C)cccc12`, the Imax in assay [1] came to 26.3%. Besides, the results for the Activity in assay [2], in assay [3] and in assay [4] were 19.28%, 56 nmol/min and 28.1%, respectively.
In the same order, the values of `CC(C)C(=O)Nc1cccc2c(OCCN3CCOCC3)cccc12` are 22.3%, 22.23%, 59 nmol/min and 25.43%.
Turning to `Nc1cccc2c(OCC(=O)N3CCOCC3)cccc12`, the Imax in assay [1] is 51%. For the same compound, the Activity in assay [2] amounted to 43.26%; in assay [3] it was 55.9 nmol/min; in assay [4], 75.35%.
